Reference: PubChem BioAssay (NCI)
Values joined by “and” are separate entries in the source; they are usually repeats but may differ in a detail not shown here. Identical values can stand only once.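 Briefly, cells in 96-well plates were exposed to five compound concentrations for 48 h, and endpoints were estimated by linear interpolation. The concentration for 50% growth inhibition is given as GI50. TGI: total growth inhibition.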

Experiments:
Test in all cases: DTP human tumour cell line panel, 48 h
UO-31 renal = system: UO-31 renal
ACHN renal = system: ACHN renal
SW-620 colon = system: SW-620 colon
SK-MEL-2 melanoma = system: SK-MEL-2 melanoma
HT29 colon = system: HT29 colon
SN12C renal = system: SN12C renal
COLO 205 colon = system: COLO 205 colon
PC-3 prostate = system: PC-3 prostate
IGROV1 ovarian = system: IGROV1 ovarian
NCI/ADR-RES ovarian = system: NCI/ADR-RES ovarian

Row | Compound | TGI (UO-31 renal) | TGI (ACHN renal) | TGI (SW-620 colon) | TGI (SK-MEL-2 melanoma) | TGI (HT29 colon) | TGI (SN12C renal) | TGI (COLO 205 colon) | TGI (PC-3 prostate) | GI50 (UO-31 renal) | GI50 (ACHN renal) | GI50 (IGROV1 ovarian) | TGI (IGROV1 ovarian) | GI50 (SW-620 colon) | GI50 (SK-MEL-2 melanoma) | GI50 (HT29 colon) | GI50 (SN12C renal) | GI50 (COLO 205 colon) | GI50 (NCI/ADR-RES ovarian) | TGI (NCI/ADR-RES ovarian) | GI50 (PC-3 prostate)
1 | CC(C)(C)OC[C@H](O)CC#N | > 100 µM | > 100 µM | > 100 µM | > 100 µM | > 100 µM | > 100 µM | > 100 µM | > 100 µM | – | – | – | – | – | – | – | – | – | – | – | –
2 | O=C1CC(=O)OC(c2ccc([N+](=O)[O-])cc2)O1 | 3.55 µM | 3.16 µM | 3.41 µM | 5.85 µM | 3.73 µM | 4.23 µM | 3.41 µM | 6.43 µM | 1.64 µM | 1.68 µM | 3.1 µM | 14.3 µM | 1.68 µM | 2.31 µM | 1.9 µM | 1.94 µM | 1.79 µM | 3.19 µM | 14.1 µM | 2.36 µM
3 | O=C(OC[C@H]1O[C@@H](OC(=O)c2cc(O)c(O)c(O)c2)[C@H](OC(=O)c2cc(O)c(O)c(O)c2)[C@@H](OC(=O)c2cc(O)c(O)c(O)c2)[C@@H]1OC(=O)c1cc(O)c(O)c(O)c1)c1cc(O)c(O)c(O)c1 | 19.2 µM | 30.1 µM | > 100 µM | 26.4 µM | 73.7 µM | > 100 µM | 46.3 µM | – | – | – | – | > 100 µM | – | – | – | – | – | – | – | –
4 | O=c1[nH]c(=O)n(C2OC3COC2C3O)cc1F (stereo unspecified) | > 100 µM | > 100 µM | > 100 µM | > 100 µM | > 100 µM | > 100 µM | > 100 µM | – | – | – | – | – | – | – | – | – | – | – | – | –
5 | C=C1C(=O)OC2/C=C(\C=O)CC/C=C(\C)C(O)C[C@@H]12 (stereo partly specified) | 26.8 µM | 19.9 µM | 10.9 µM | 25 µM | 11.6 µM | 14.5 µM | 15.3 µM | – | – | – | – | 32.3 µM | – | – | – | – | – | – | – | –
6 | O=C([CH-]C(=O)C(F)(F)F)c1ccccc1.O=C([CH-]C(=O)C(F)(F)F)c1ccccc1.O=C([CH-]C(=O)C(F)(F)F)c1ccccc1.O=C([CH-]C(=O)C(F)(F)F)c1ccccc1.[Eu+3].c1ccncc1 | – | > 100 µM | > 100 µM | – | > 100 µM | 39.7 µM | > 100 µM | – | – | 8.71 µM | 7.88 µM | > 100 µM | 11.9 µM | – | 6.97 µM | 3.74 µM | 28.8 µM | – | – | –
7 | O=C1NC2(CN3CCC2CC3)C(=O)N1CN(Cc1ccccc1)c1ccccc1 (stereo unspecified) | > 100 µM | > 100 µM | > 100 µM | > 100 µM | > 100 µM | > 100 µM | > 100 µM | > 100 µM | – | – | – | > 100 µM | – | – | – | – | – | – | > 100 µM | –
8 | COC(=O)CCCCCN=Cc1c(O)c(O)c(C(C)C)c2cc(C)c(-c3c(C)cc4c(C(C)C)c(O)c(O)c(C=NCCCCCC(=O)OC)c4c3O)c(O)c12 | > 32.5 µM | > 32.5 µM | > 32.5 µM | 28.7 µM | > 32.5 µM | > 32.5 µM | 13.2 µM | > 32.5 µM | 1.24 µM | 1.42 µM | 1.76 µM | > 32.5 µM | 1.37 µM | 2.2 µM | 1.29 µM | 1.3 µM | 1.18 µM | 9.04 µM | > 32.5 µM | 1.03 µM
9 | COc1ccc(/C=C2\C(=O)N(C(=O)Cc3ccccc3)N=C2C)cc1OC | > 100 µM | > 100 µM | > 100 µM | > 100 µM | > 100 µM | > 100 µM | > 100 µM | – | – | – | – | – | – | – | – | – | – | – | – | –
10 | N.N.N.N.N.N.O=N[O-].[Br-].[Co+3].[Co+3].[OH3+].[OH3+] | > 100 µM | > 100 µM | > 100 µM | > 100 µM | – | > 100 µM | > 100 µM | – | > 100 µM | > 100 µM | > 100 µM | > 100 µM | > 100 µM | > 100 µM | – | > 100 µM | > 100 µM | – | – | –
11 | c1cc(CNC2C3CCC(C3)C2c2c[nH]c3ccccc23)cc(CNC2C3CCC(C3)C2c2c[nH]c3ccccc23)c1 (stereo unspecified) | – | 2.04 µM | > 100 µM | 3.11 µM | – | 31.5 µM | 3.03 µM | 2.7 µM | – | – | – | 2.69 µM | 2.11 µM and 0.386 µM | – | 0.331 µM and 0.154 µM | 14.5 µM | 1.54 µM | 1.21 µM and 0.607 µM | 2.6 µM and 1.99 µM | –
12 | COC(=O)c1c(-c2ccccc2)sc(-c2cccc3ccccc23)c1C(=O)OC | > 100 µM | > 100 µM | > 100 µM | > 100 µM | > 100 µM | > 100 µM | > 100 µM | – | – | – | – | > 100 µM | – | – | – | – | – | – | – | –
13 | Cc1cc2c(=O)c3ccccc3[nH]c2c(C(=O)O)c1C | 87.5 µM | > 100 µM | > 100 µM | > 100 µM | > 100 µM | > 100 µM | > 100 µM | – | – | – | – | > 100 µM | – | – | – | – | – | – | – | –
14 | CCOC(=O)COS(=O)(=O)C(F)(F)F | > 100 µM | > 100 µM | – | > 100 µM | > 100 µM | > 100 µM | > 100 µM | – | – | – | – | > 100 µM | – | – | – | – | – | – | – | –
15 | C=C=C(C(=O)OC)S(=O)c1ccc([N+](=O)[O-])cc1[N+](=O)[O-] (stereo unspecified) | 98.2 µM | > 68.5 µM | 36.3 µM | > 79.8 µM | 52.9 µM | 49 µM | 52.7 µM | – | – | – | – | 97.5 µM | – | – | – | – | – | – | – | –
16 | COc1cc(Br)c(C=Nc2cccc3ccc(OS(=O)(=O)c4cccc([N+](=O)[O-])c4)cc23)cc1OC | > 100 µM | > 100 µM | > 100 µM | > 100 µM | > 100 µM | > 100 µM | > 100 µM | – | – | – | – | > 100 µM | – | – | – | – | – | – | – | –
17 | Nc1nc(CCC(=O)Nc2cccc(C(F)(F)F)c2)cc(-c2ccc3ccccc3c2)n1 | > 100 µM | > 100 µM | > 100 µM | > 100 µM | > 100 µM | > 100 µM | > 100 µM | – | – | – | – | > 100 µM | – | – | – | – | – | – | – | –
18 | COC1CC(OC(=O)c2ccccc2)C(OC(=O)c2ccccc2)C(C)O1 (stereo unspecified) | > 100 µM | > 100 µM | > 100 µM | > 100 µM | – | > 100 µM | > 100 µM | > 100 µM | – | – | – | > 100 µM | – | – | – | – | – | – | > 100 µM | –
19 | S=c1nc(-c2cccnc2)[nH][nH]1 | – | > 100 µM | > 100 µM | > 100 µM | > 100 µM | > 100 µM | > 100 µM | – | – | – | – | – | – | – | – | – | – | – | – | –
20 | C1=CC=C2NCCOCCNC3=CC=CC=CC3=NCCOCCN=C2C=C1 | > 100 µM | > 100 µM | > 100 µM | > 100 µM | 62.6 µM | > 100 µM | > 100 µM | – | – | – | – | > 100 µM | – | – | – | – | – | – | – | –
21 | Cc1nc(C(N)=S)sc1C(=O)C/C(=N/N)C(=O)Nc1cccc(Cl)c1C | > 100 µM | > 100 µM | > 100 µM | > 100 µM | > 100 µM | > 100 µM | – | > 100 µM | – | – | – | > 100 µM | – | – | – | – | – | – | > 100 µM | –
